Measured values: US9833466B2, “Treatment of leukemia with histone deacetylase inhibitors” (Acetylon Pharmaceuticals Inc., priority 2014, dated 2017)

How the values were obtained:
[1] = test system: HDAC1, HDAC2, HDAC3 and HDAC6; test: HDAC selectivity of the inhibitor panel; type: biochemical; settings: HDAC isoform(s) the inhibitor is selective for
Experimental: Compounds for testing are diluted in DMSO to 50 fold the final concentration and a ten point three fold dilution series is made. The compounds are diluted in assay buffer (50 mM HEPES, pH 7.4, 100 mM Kill, 0.001% Tween-20, 0.05% BASE, 20 μM TEC) to 6 fold their final concentration. The HDAC enzymes (purchased from BPS Biosciences) are diluted to 1.5 fold their final concentration in assay buffer. The dipeptide substrate and trypsin at 0.05 μM final concentration are diluted in assay buffer at 6 fold their final concentration. The final enzyme concentrations to use in these assays are 3.3 ng/ml (HDAC1), 0.2 ng/ml (HDAC2), 0.08 ng/ml (HDAC3) and 2 ng/ml (HDAC6). The final substrate concentrations to use are 16 μM (HDAC1), 10 μM (HDAC2), 17 μM (HDAC3) and 14 μM (HDAC6). Five μ1 of compound and 20 μl of enzyme are added to wells of a black, opaque 384 well plate in duplicate. Enzyme and compound are incubated together at room temperature for 10 min. Five μ1 of substrate is added to each well, the plate is shaken for 60 seconds and placed into a Victor 2 microliter plate reader. The development of fluorescence is monitored for 60 min. and the linear rate of the reaction is calculated. The IC50 is determined using Graph Pad Prism by a four parameter curve fit.
The following HDAC inhibitors were used to evaluate the relationship between HDAC selectivity and the viability of AML cell lines upon exposure to the HDAC inhibitor: […]

MV4-11 [2] = test: Surface CD11b by FACS in MV4-11; type: cell-based; settings: single agent, 72 h
Experimental: (§1) The distribution of cells among G0/G1 phase, G2/M phase, S phase and subG1 phase was determined. […] The relative fraction of cells that were live, in early apoptosis, in late apoptosis, or dead was then determined.
(§2) MV4-11 cells were treated with Compound E or with Compound A or with Compound B as single agent or in combination with azacitidine at indicated doses. FIGS. 12A, 12C, and 12E show surface levels of CD11b determined by FACS at 72 h post-treatment. FIGS. 12B, 12D, and 12F show assessment of apoptosis by FACS (as in, e.g., FIG. 9C) at 96 h post-treatment.
(§3) FIG. 17. […] (A) Indicated AML cell lines were exposed to increasing concentrations of Compound J to confirm their sensitivity to HDAC1/2 inhibition. (B-D) MV4-11 cells were treated with indicated concentrations of compounds. (B) Surface levels of myeloid differentiation marker CD11b were determined by FACS at 72 h post-treatment. […] (C) Cell cycle was assessed by flow cytometry after incorporation of EdU and staining with Far Red at 72 h post-treatment. The distribution of cells among G0/G1 phase, G2/M phase, S phase and subG1 phase was determined. […] (D) Apoptosis was assessed by flow cytometry via measuring Annexin V binding and cellular permeability to propidium iodide at 96 h post-treatment. The relative fraction of cells that were live, in early apoptosis, in late apoptosis or dead was then determined.

[3] = test system: HL-60, NB4, MV4-11, Kasumi-1, THP-1, and MOLM-13; test: Single agent activity on viability in AML cell lines; type: cell-based; settings: for viability IC50 relative to HDAC selective range: 72 hours, six AML cell lines
Experimental: FIGS. 3A-D show the single agent activity on viability in AML cell lines. Briefly, each of the following cell lines: HL-60, THP-1, MV-4-11, Kasumi-1, NB4, and MOLM-13 were exposed to increasing concentrations of either Compound B (FIG. 3A), Compound A (FIG. 3B), Compound E (FIG. 3C), or azacitidine (FIG. 3D) to determine their response to drug treatment. […] The panel of cell lines was also treated with azacitidine to measure their sensitivity.
FIGS. 8A-F show the single agent activity on viability in AML cell lines. […] Viability was calculated as a percentage of control (DMSO treated cells). Growth inhibition curves were generated using GraphPad Prism 6.
FIG. 17. […] (B-D) MV4-11 cells were treated with indicated concentrations of compounds. (B) Surface levels of myeloid differentiation marker CD11b were determined by FACS at 72 h post-treatment. […] (C) Cell cycle was assessed by flow cytometry after incorporation of EdU and staining with Far Red at 72 h post-treatment. The distribution of cells among G0/G1 phase, G2/M phase, S phase and subG1 phase was determined. […] (D) Apoptosis was assessed by flow cytometry via measuring Annexin V binding and cellular permeability to propidium iodide at 96 h post-treatment. The relative fraction of cells that were live, in early apoptosis, in late apoptosis or dead was then determined.

[4] = test system: bone marrow samples derived from AML patients; test: Primary AML sample colony formation assay; type: cell-based; settings: Homo sapiens, 336 h; 6 bone marrow samples from AML patients; 14 days; single agent; read-out: median IC50, colony formation
Experimental: (A) 6 bone marrow samples derived from AML patients were cultured in methylcellulose-based medium and treated with increasing concentrations of Compound A, Compound J and azacitidine for 14 days when the colonies reach reasonable size. IC50 values for each drug are plotted. […] IC50 values were plotted for each patient sample.

MV4-11 [5] = test: Apoptosis by Annexin V / propidium iodide flow cytometry in MV4-11; type: cell-based; settings: single agent, 96 h
Experimental: as §1, §2, §3

[6] = test system: AML blast freshly derived from bone marrow of AML patients; test: Ex vivo proliferation of AML blast freshly derived from bone marrow; type: cell-based; settings: Homo sapiens; 5 bone marrow samples from AML patients; flow cytometry at 96 h; single agent; read-out: median IC50, live AML cells
Experimental: (A-B), 5 bone marrow samples derived from AML patients were treated with increasing concentrations of azacitidine, Compound A and Compound J and live AML cells were quantified by flow cytometry at 96 h. IC50 values (A) and AUC values (B) were plotted. […] The relative potency of the three drugs are Compound J>azacitidine>Compound A, consistent with the result in FIG. 2. (C) 5 bone marrow samples derived from AML patients were treated with increasing doses of azacitidine with Compound J and live AML cells were quantified by flow cytometry at 96 h. The combination index (Comb IDX) were calculated and median Comb IDX values were plotted.

MV4-11 [7] = test: Cell cycle by flow cytometry (EdU, Far Red) in MV4-11; type: cell-based; settings: single agent, 72 h
Experimental: as §1, §3

AML1/ETO fusion protein = AML1/ETO fusion protein Western blot in Kasumi-1 cells; type: cell-based; settings: 24 hours
Experimental: One type of AML has a signature chromosome translocation t(8:21) and therefore expression of a unique fusion protein AML1/ETO. […] In this study, Kasumi-1 cells were exposed to different concentrations of the HDAC inhibitor Compound A, or another HDAC1/2/6 selective inhibitor Compound G (data not shown), for 24 hours. The whole cell lysates were separated by SDS-PAGE (SDS-polyacrylamide gel electrophoresis) and transferred to a membrane (Western blot). The AML1/ETO fusion protein was detected on the membrane using an AML1 specific antibody.

Kasumi-1 [8] = test: Kasumi-1 cell cycle by propidium iodide staining (sub-G1); type: cell-based; settings: 72 hours, increasing concentrations
Experimental: HDAC inhibition causing AML cell death (apoptosis) was measured by staining the AML cells with propidium iodide after the cells were exposed to different concentrations of the HDAC inhibitors. Four distinct cell populations, G1, S, G2, and sub-G1, were separated and quantified based on their propidium iodide staining patterns. The sub-G1 cells are those dying or dead cells, and the percentage of this population was a reflection of the tested compound cytotoxicity.

NB4 = test: Surface CD11b by FACS in NB4; type: cell-based; settings: single agent, 72 hours
Experimental: (§4) Briefly, the AML cell lines HL-60 (FIGS. 4A and 4D), Kasumi-1 (FIGS. 4B and 4E) and NB4 (FIGS. 4C and 4F) were treated with the indicated concentrations of compounds. In FIGS. 4A-C, surface levels of myeloid differentiation marker CD11b were determined by FACS at 72 hours post-treatment. […] In FIGS. 4D-F, apoptosis was assessed by flow cytometry by measuring Annexin V binding and cellular permeability to propidium iodide at 96 hours post-treatment. The relative fraction of cells that were alive, in early apoptosis, in late apoptosis, or dead was then determined.
FIGS. 7A-F show the combination of HDAC inhibitors and azacitidine in the NB4 cell line. Briefly, cells were treated with DMSO, Compound B, Compound A, or Compound E as single agent or in combination with azacitidine at the indicated concentrations. Surface levels of CD11b were determined 72 hours post-treatment (FIGS. 7A, 7C, 7E), and apoptosis was assessed 96 hours post-treatment (FIGS. 7B, 7D, 7F).

Kasumi-1 [9] = test: Surface CD11b by FACS in Kasumi-1; type: cell-based; settings: single agent, 72 hours
Experimental: as §4
Briefly, cells were treated with DMSO, Compound B, Compound A, or Compound E as a single agent or in combination with azacitidine at the indicated concentrations. Surface levels of CD11b were determined 72 hours post-treatment (FIGS. 6A, 6C, 6E), and apoptosis was assessed 96 hours post-treatment (FIGS. 6B, 6D, 6F).

HL-60 = test: Surface CD11b by FACS in HL-60; type: cell-based; settings: single agent, 72 hours
Experimental: as §4
FIGS. 5A-F show the combination of HDAC inhibitors and azacitidine in the HL-60 cell line. Briefly, cells were treated with DMSO, Compound B, Compound A, or Compound E as a single agent or in combination with azacitidine for 96 hours. Surface levels of CD11b (FIGS. 5A, 5C, 5E) and apoptosis (FIGS. 5B, 5D, 5F) was assessed by flow cytometry, as in FIG. 4.

MV4-11 cells = test: MV4-11 tumor growth and survival in Ncr nu/nu mice; type: in vivo; settings: single agent azacitidine 5 mg/kg IV q3d; MV4-11 in Ncr nu/nu mice
Experimental: Ncr nu/nu mice implanted with MV4-11 cells were treated with vehicle, azacitidine (5 mg/kg IV q3d), or azacitidine (5 mg/kg IV q3d) plus Compound A (50 mg/kg IP 5/2/5/2/5/2/5) for up to 4 weeks. (A) Tumor volume was measured twice weekly and the mean tumor volume±SD is plotted. (B) Fold tumor volume change on day 19 relative to day 1 is plotted. (C) Survival curve was plotted.

HL-60, Kasumi-1 and NB4 = test: Apoptosis by Annexin V / propidium iodide flow cytometry in three AML cell lines; type: cell-based; settings: single agent; 96 hours; HL-60, Kasumi-1, NB4
Experimental: as §4
FIGS. 10A-F show the treatment of the following AML cell lines: Kasumi-1 (FIGS. 10A and 10B), HL-60 (FIGS. 10C and 10D) and NB4 (FIGS. 10E and 10F), with indicated doses of compounds. FIGS. 10A, 10C, and 10E show surface levels of myeloid differentiation marker CD11b determined by FACS at 72 h post-treatment. […] FIGS. 10B, 10D, and 10F show the assessment of apoptosis by FACS (see, e.g., FIG. 9C).

GATA2 = GATA2 expression in MV4-11 AML cell line; type: cell-based; settings: single agent at 1 uM, 48 h and 72 h
Experimental: FIG. 16. […] (A-B) MV4-11 cells were plated at 2×10^5 cells/ml at indicated doses for 48 h and 72 h. RNA was prepared and analyzed for GATA2 and GAPDH as internal control.

SMILES: O=C(NO)c1cnc(NC2(c3cccc(F)c3)CCCCC2)nc1 [Compound C, 2-((1-(3-fluorophenyl)cyclohexyl)amino)-N-hydroxypyrimidine-5-carboxamide]
- Selectivity [1]: HDAC6
- percentage of CD11b positive cells (MV4-11 [2]): no effect on CD11b positive cells
- viability IC50 relative to HDAC selective range [3]: beyond its selective range

SMILES: Nc1ccc(-c2cccs2)cc1NC(=O)c1ccc2nc(N3CCNCC3)ccc2c1 [Compound J, N-(2-amino-5-(thiophen-2-yl)phenyl)-2-(piperazin-1-yl)quinoline-6-carboxamide]
- IC50 [4]: 2950 nM
- percentage of CD11b positive cells (MV4-11 [2]): highest potency increasing percentage of CD11b positive cells
- apoptosis relative to control cells (MV4-11 [5]): increase in apoptosis relative to control cells
- IC50 [6]: 600 nM
- cell viability ([3]; AML cell lines): reduces cell viability
- cell cycle arrest (MV4-11 [7]): induced cell cycle arrest as well as apoptosis

SMILES: O=C(NO)c1cnc(NC2(c3ccccc3)CCN(C(=O)Nc3ccccc3)CC2)nc1 [Compound G, N-hydroxy-2-((4-phenyl-1-(phenylcarbamoyl)piperidin-4-yl)amino)pyrimidine-5-carboxamide]
- amount of AML1/ETO fusion protein (AML1/ETO fusion protein): decrease the amount of this fusion protein in a concentration dependent manner
- sub-G1 cells (dying or dead cells) (Kasumi-1 [8]): Increased amount of sub-G1 cells
- Selectivity [1]: HDAC6 (1/2)
- percentage of CD11b positive cells (MV4-11 [2]): increased the percentage of CD11b positive cells
- apoptosis relative to control cells (MV4-11 [5]): increase in apoptosis relative to control cells
- viability IC50 relative to HDAC selective range [3]: has some inhibitory effects on HDAC1/2 at their IC50 values
- cell cycle arrest (MV4-11 [7]): induced cell cycle arrest

SMILES: Nc1ncn([C@@H]2O[C@H](CO)[C@@H](O)[C@H]2O)c(=O)n1 [azacitidine, 4-amino-1-β-D-ribofuranosyl-S-triazin-2(1H)-one, reference compound]
- CD11b positive cells (NB4): minimal effects
- CD11b positive cells (Kasumi-1 [9]): increased CD11b positive cells
- CD11b positive cells (HL-60): increased CD11b positive cells
- survival (MV4-11 cells): increased survival
- tumor growth (MV4-11 cells): reduced tumor growth
- IC50 [4]: 8110 nM
- IC50 [6]: 2100 nM
- apoptosis relative to control cells (HL-60, Kasumi-1 and NB4): increase in apoptosis relative to control cells
- GATA2 level (GATA2): induced GATA2 level

SMILES: Nc1cc(F)ccc1NC(=O)c1cnc2c(C3CC3)c(N3CCNCC3)ccc2c1 [Compound H]
- Selectivity [1]: HDAC3
- percentage of CD11b positive cells (MV4-11 [2]): increased the percentage of CD11b positive cells
- viability IC50 relative to HDAC selective range [3]: beyond its selective range
